Consider 30 molecules from US12421212B2, “Substituted benzenecarboxamides as IL-17A modulators” (DiCE Alpha, Inc., priority 2019, dated 2025).

The first assay concerns the target T1, IL-17A/A (Homo sapiens, UniProt Q16552).
T1 construct: purchased Genscript Z03228
T1 sequence (Q16552 24-155): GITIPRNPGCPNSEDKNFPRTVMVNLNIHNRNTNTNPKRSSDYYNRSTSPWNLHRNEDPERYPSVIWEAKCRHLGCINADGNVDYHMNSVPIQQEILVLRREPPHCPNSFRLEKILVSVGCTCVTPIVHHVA
In words: IL-17A/A HEK-Blue Cell Assay. The class given is cell-based. To be noted: HEK-Blue IL-17A reporter cell line, SEAP readout at A630, 20 hours incubation with IL-17A/A; top concentration 10 uM, 1 uM or 0.3 uM.
As for `CCC(=O)N[C@@H](C(=O)N1CCN(C)CC1)[C@@H](C)c1ccc(NC(=O)[C@@H](NC(=O)c2ccnn2CC)C2CCOCC2)c(F)c1` [Compound 747], the “IL-17A/A inhibition (pIC50)” value is “X2b (compounds were evaluated up to 1 uM and inhibited activity at 1 uM by less than 20%)”.

For `CCC(=O)N[C@@H](C(=O)N1CCN(C)CC1)[C@@H](C)c1ccc(NC(=O)[C@@H](NC(=O)C(F)(F)C2CCNCC2)C2CCCCC2)c(F)c1` [Compound 733], the “IL-17A/A inhibition (pIC50)” value was “X2b (compounds were evaluated up to 1 uM and inhibited activity at 1 uM by less than 20%)”.

On to `CCC(=O)N[C@H](Cc1ccc(NC(=O)[C@@H](NC(=O)c2ccnn2CC)C2CCCCC2)c(F)c1)C(=O)N1CCN2CCCC[C@@H]2C1` [Compound 697], for which the “IL-17A/A inhibition (pIC50)” value was “X2a (compounds were evaluated up to 1 uM and did not inhibit activity by >80%, however they showed some activity at 1 uM (less than 80% and more than 20%))”.

Regarding `CCC(=O)N[C@H](Cc1ccc(NC(=O)[C@@H](NC(=O)c2cc(CC(C)C)nn2CC)C2CCCCC2)c(F)c1)C(=O)N1CCN(C)CC1` [Compound 773], the “IL-17A/A inhibition (pIC50)” value was “X1b (compounds were evaluated up to 10 uM and inhibited activity at 10 uM by less than 20%)”.

`CCC(=O)N[C@H](Cc1ccc(NC(=O)[C@@H](NC(=O)c2cnc(C(=O)NC)[nH]2)C2CCCCC2)c(F)c1)C(=O)N1CCN(C)CC1` [Compound 781]: the “IL-17A/A inhibition (pIC50)” value was “X1b (compounds were evaluated up to 10 uM and inhibited activity at 10 uM by less than 20%)”.

For the molecule `CCC(=O)N[C@H](Cc1ccc(NC(=O)[C@@H](NC(=O)C(F)(F)c2ccc(=O)n(C)c2)C2CCCCC2)c(F)c1)C(=O)N1CCN(C)CC1` [Compound 713], the “IL-17A/A inhibition (pIC50)” value is “X2b (compounds were evaluated up to 1 uM and inhibited activity at 1 uM by less than 20%)”.

Consider `CCC(=O)N[C@H](Cc1ccc(NC(=O)[C@@H](NC(=O)Cc2ccc(=O)[nH]c2)C2CCCCC2)c(F)c1)C(=O)N1CCN(C)CC1` [Compound 778], for which the “IL-17A/A inhibition (pIC50)” value is “X1b (compounds were evaluated up to 10 uM and inhibited activity at 10 uM by less than 20%)”.

`CCC(=O)N[C@H](Cc1ccc(NC(=O)[C@@H](NC(=O)Cc2c[nH]cn2)C2CCCCC2)c(F)c1)C(=O)N1CCN(C)CC1` [Compound 776]: the “IL-17A/A inhibition (pIC50)” value is “X1b (compounds were evaluated up to 10 uM and inhibited activity at 10 uM by less than 20%)”.

With `CCC(=O)N[C@@H](C(=O)N1CCN(C)CC1)[C@H](C)c1ccc(NC(=O)[C@@H](NC(=O)c2ccnn2CC)C2CCCCC2)cc1` [Compound 771], the “IL-17A/A inhibition (pIC50)” value is “X1a (compounds were evaluated up to 10 uM and did not inhibit activity by >80%, however they showed some activity at 10 uM (less than 80% and more than 20%))”.

As to `CCC(=O)N[C@H](C(=O)N1CCN(C)CC1)[C@H](C)c1ccc(NC(=O)[C@@H](NC(=O)c2ccnn2CC)[C@H]2CC[C@H](C)CC2)c(F)c1` [Compound 542], the “IL-17A/A inhibition (pIC50)” value is “X3b (compounds were evaluated up to 0.3 uM and inhibited activity at 0.3 uM by less than 20%)”.

Still in this assay, the particulars now being: HEK-Blue IL-17A reporter cell line, SEAP readout at A630, 20 hours incubation with IL-17A/A; top concentration 10 uM, 1 uM or 0.3 uM; read-out: IL-17A/A inhibition (pIC50) (converted).
For the molecule `CCC(=O)N[C@@H](C(=O)N1CCN(C)CC1)[C@@H](C)c1ccc(NC(=O)C(NC(=O)c2nonc2CC)C(CC)c2ccc(F)cc2)c(F)c1` (single isomer, unassigned) [Compound 558], the IC50 is below 0.01 µM.

As for `CCC(=O)N[C@H](Cc1ccc(NC(=O)[C@@H](NC(=O)c2ccnn2CC)C2CCCCC2)c(Cl)c1)C(=O)N1CCN(C)CC1` [Compound 763], the IC50 was 0.1 to 10 µM.

Turning to `C[C@@H](c1ccc(NC(=O)[C@@H](NC(=O)C(F)(F)c2cccc(C#N)c2)C2CCCCC2)c(F)c1)[C@@H](NC(=O)NC1CC1)C(=O)N1CCN(C)CC1` [Compound 316], the IC50 was below 0.01 µM.

Take `CCC(=O)N[C@@H](C(=O)N1CCN(C)CC1)[C@@H](C)c1ccc(NC(=O)[C@@H](NC(=O)C(F)(F)c2ccc(OC)nc2)[C@H]2CC[C@H](C(F)(F)F)CC2)c(F)c1` [Compound 285]: the IC50 is 0.01 to 0.1 µM.

As for `CCc1nonc1C(=O)N[C@H](C(=O)Nc1ccc([C@H](C)[C@@H](NC(=O)C(F)(F)CC)C(=O)N2CCN(C)[C@H](C)C2)cc1F)[C@H]1CC[C@H](C)CC1` [Compound 504], the IC50 is below 0.01 µM.

In the case of `CCn1nccc1C(=O)N[C@H](C(=O)Nc1ccc([C@H](C)[C@@H](NC(=O)c2ccc(C)s2)C(=O)N2CCN(C)CC2)cc1F)C1CCCCC1` [Compound 635], the IC50 is 0.1 to 10 µM.

As for `CC(C)n1nccc1C(=O)N[C@@H](C(=O)N1CCN(C)CC1)[C@@H](C)c1ccc(NC(=O)[C@@H](NC(=O)c2ccnn2C(C)C)[C@H]2CC[C@H](C)CC2)c(F)c1` [Compound 330], the IC50 is below 0.01 µM.

As to `CCC(=O)N[C@H](Cc1ccc(NC(=O)[C@@H](NC(=O)C(F)(F)c2ccc(=O)[nH]c2)C2CCCCC2)c(F)c1)C(=O)N1CCN(C)CC1` [Compound 217], the IC50 is 0.1 to 10 µM.

On to `CCC(=O)N[C@@H](C(=O)N1CCN(C)CC1)[C@@H](C)c1ccc(NC(=O)C(NC(=O)c2nonc2CC)C(C)c2ccccc2Cl)c(F)c1` (stereo partly drawn) [Compound 521], for which the IC50 was 0.1 to 10 µM.

With `CCn1nccc1C(=O)N[C@H](C(=O)Nc1ccc([C@H](C)[C@@H](NC(=O)c2conc2C2CCNCC2)C(=O)N2CCC(C)(O)CC2)cc1F)[C@H]1CC[C@H](C)CC1` [Compound 442], the IC50 was 0.01 to 0.1 µM.

On to `CCC(=O)N[C@H](Cc1ccc(NC(=O)[C@@H](NC(=O)c2conc2CC)[C@H]2CC[C@H](C)CC2)c(F)c1)C(=O)N1CCN(C)CC1` [Compound 630], for which the IC50 was 0.1 to 10 µM.

Regarding `CCn1nccc1C(=O)N[C@H](C(=O)Nc1ccc([C@H](C)[C@@H](NC(=O)c2cnsc2)C(=O)N2CCN(C)CC2)cc1F)C1CCCCC1` [Compound 305], the IC50 was 0.01 to 0.1 µM.

Regarding `CCC(=O)N[C@@H](C(=O)N1CCN(C)C[C@H]1C)[C@@H](C)c1ccc(NC(=O)[C@@H](NC(=O)c2nonc2CC)[C@H]2CC[C@H](C)CC2)c(F)c1` [Compound 457], the IC50 is below 0.01 µM.

With `CCC(=O)NC(C(=O)N1CCN(C)CC1)C(C)c1ccc(NC(=O)C(NC(=O)C(F)(F)c2cnc(OC)nc2)C2CCC(C)CC2)c(F)c1` (stereo not drawn) [Compound 405], the IC50 was 0.01 to 0.1 µM.

For `CCC(=O)N[C@H](Cc1ccc(NC(=O)[C@@H](NC(=O)c2ccnn2CC)C2CCCCC2)c(F)c1)C(=O)Nc1cccnc1` [Compound 694], the IC50 is 0.1 to 10 µM.

With `CCn1nccc1C(=O)N[C@H](C(=O)Nc1ccc([C@H](C)C(NC(=O)C(C)F)C(=O)N2CCN(C)[C@H](C)C2)cc1F)[C@H]1CC[C@H](C)CC1` (single isomer, unassigned) [Compound 596], the IC50 is 0.01 to 0.1 µM.

With `CCC(=O)N[C@@H](C(=O)N1CCN(C)CC1)[C@@H](C)c1ccc(NC(=O)[C@@H](NC(=O)c2conc2C(C)C)C2CCCCCC2)c(F)c1` [Compound 268], the IC50 was below 0.01 µM.

With `CCC(=O)N[C@@H](C(=O)N1CCN(C)CC1)[C@@H](C)c1ccc(NC(=O)[C@@H](NC(=O)C(F)(F)c2cccc(C#N)c2)[C@H]2CC[C@H](C)CC2)c(F)c1` [Compound 282], the IC50 was below 0.01 µM.

As for `CCC(=O)N[C@@H](C(=O)N1CCC(Oc2ccccc2)CC1)[C@@H](C)c1ccc(NC(=O)[C@@H](NC(=O)c2ccnn2CC)[C@H]2CC[C@H](C)CC2)c(F)c1` [Compound 372], the IC50 is 0.01 to 0.1 µM.

For `COc1ccc(C(F)(F)C(=O)N[C@H](C(=O)Nc2ccc([C@H](C)[C@@H](NC(=O)c3cnns3)C(=O)N3CCN(C)CC3)cc2F)C2CCCCC2)cn1` [Compound 224], the IC50 was below 0.01 µM.
